In patent publication US11629155B2, “Small molecule antagonist compound TAC5 series having toll-like receptor 3/7/8/9 inhibitory function” (AJOU UNIVERSITY INDUSTRY-ACADEMIC COOPERATION FOUNDATION, priority 2018, dated 2023):

Biological target: T1, TLR3 (Homo sapiens, UniProt O15455)
T1 construct: endogenous in cells; host or cells: THP1-derived macrophages (PMA-differentiated)
T1 sequence (O15455 24-904): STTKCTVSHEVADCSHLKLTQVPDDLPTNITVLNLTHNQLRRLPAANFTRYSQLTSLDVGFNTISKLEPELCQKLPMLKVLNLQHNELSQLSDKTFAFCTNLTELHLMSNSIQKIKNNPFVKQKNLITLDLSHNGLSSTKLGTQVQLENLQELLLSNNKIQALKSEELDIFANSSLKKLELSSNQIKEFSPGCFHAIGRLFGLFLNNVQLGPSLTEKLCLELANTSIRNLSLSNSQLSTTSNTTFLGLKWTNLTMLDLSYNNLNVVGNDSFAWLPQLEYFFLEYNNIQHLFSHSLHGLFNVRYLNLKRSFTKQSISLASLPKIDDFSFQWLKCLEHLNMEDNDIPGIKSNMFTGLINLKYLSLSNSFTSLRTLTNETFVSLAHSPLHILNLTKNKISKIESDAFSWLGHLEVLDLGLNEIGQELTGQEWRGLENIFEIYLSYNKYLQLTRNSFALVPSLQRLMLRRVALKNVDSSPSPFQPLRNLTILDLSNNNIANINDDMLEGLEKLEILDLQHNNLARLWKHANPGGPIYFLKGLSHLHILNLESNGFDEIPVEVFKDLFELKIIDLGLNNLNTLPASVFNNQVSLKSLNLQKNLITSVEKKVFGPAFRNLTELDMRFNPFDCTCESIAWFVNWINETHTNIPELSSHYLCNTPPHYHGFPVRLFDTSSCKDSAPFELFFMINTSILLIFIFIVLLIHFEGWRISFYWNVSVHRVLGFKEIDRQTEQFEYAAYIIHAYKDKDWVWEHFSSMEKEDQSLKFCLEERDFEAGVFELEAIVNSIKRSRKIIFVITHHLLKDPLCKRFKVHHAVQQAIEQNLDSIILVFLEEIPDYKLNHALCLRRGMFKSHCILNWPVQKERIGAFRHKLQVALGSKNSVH
Test: poly(I:C)-induced TNF-α or IL-6 secretion in THP1-derived macrophages
Format: cell-based
Settings: dose-dependent manner, FIGS. 4E-4G

In the case of `Nc1cccc(COc2cccnc2N)c1` [TAC5-a, 3-((3-aminobenzyl)oxy)pyridin-2-amine], the “TLR3-mediated TNF-α or IL-6 secretion” value is reported as “significantly inhibited”.
